From patent US11503827B2, “Stabilized chemical composition” (priority 2010, dated 2022) come the findings set out here.

The nature of this data set: Dissolution of active ingredient in liquid epoxy resin mixture, by inspection. The following applies: 1.0-1.5 g AI in 8 g 635 Thin Epoxy Resin and 4 g 556 2:1 Epoxy Hardener. The data set is classed as physicochemical. Here is the method: Nine different individual resin mixtures were prepared by mixing together 8 g 635 Thin Epoxy Resin, 4 g 556 2:1 Epoxy Hardener and between 1.0 and 1.5 g of the following finely milled active ingredients: atrazine, azoxystrobin, bicylopyrone, cyproconazole, difenoconazole, mesotrione, prodiamine, thiabendazole, thiamethoxam. […] The samples were placed on a platform shaker overnight at room temperature and then examined by light microscopy. In every case the presence of a dispersion of epoxy resin particles of diameter approximately 100 microns was confirmed. Crystals of the active ingredient were visible inside the epoxy particles under polarized light, except that in the cases of bicyclopyrone and mesotrione individual crystals were not visible as these active ingredients had dissolved in the epoxy resin—in these cases the entire epoxy resin particle was slightly birefringent indicating the presence of crystal domains within the matrix.
For the compound `COCCOCc1nc(C(F)(F)F)ccc1C(=O)C1=C(O)C2CCC(C2)C1=O` (stereo not drawn) [bicylopyrone], the “dissolution of active ingredient in the liquid resin” value is reported as “fully dissolved”. The value for `CC(C1CC1)C(O)(Cn1cncn1)c1ccc(Cl)cc1` (stereo not drawn) [cyproconazole] was “most of the cyproconazole was dissolved”; that for `CS(=O)(=O)c1ccc(C(=O)C2C(=O)CCCC2=O)c([N+](=O)[O-])c1` [mesotrione] was “fully dissolved”.
